Data: US8952024B2, “Herbicidal pyrimidone derivatives” (E I du Pont de Nemours and Company, priority 2009, dated 2015)

What was measured:
Format in all cases: in vivo
[1] = test system: umbrella sedge (Cyperus difformis); assay: Test B flooded paddy test; settings: for Plant response rating, Flood, Sedge, Umbrella: 250 g ai/ha, flooded paddy test, visual rating on 0 to 100 scale (0 no effect, 100 complete control) after 13 to 15 days; for Plant response rating, Sedge, Umbrella: Flood (flooded paddy test), 13 to 15 days
Procedure, shortened: (§1)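 Post-flood paddy application: compounds are introduced into water 3 cm deep over the soil, reaching plants at the 2-leaf stage. The water level is maintained, and after 13–15 days under greenhouse conditions, response is judged by eye relative to controls, where 100 means complete control.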

[2] = test system: barnyardgrass (Echinochloa crus-galli); assay: Test B flooded paddy test; settings: for Plant response rating, Flood, Barnyardgrass: 250 g ai/ha, flooded paddy test, visual rating on 0 to 100 scale (0 no effect, 100 complete control) after 13 to 15 days; for Plant response rating, Barnyardgrass: Flood (flooded paddy test), 13 to 15 days
Procedure, shortened: as §1

[3] = test system: ducksalad (Heteranthera limosa); assay: Test B flooded paddy test; settings: for Plant response rating, Flood, Ducksalad: 250 g ai/ha, flooded paddy test, visual rating on 0 to 100 scale (0 no effect, 100 complete control) after 13 to 15 days; for Plant response rating, Ducksalad: Flood (flooded paddy test), 13 to 15 days
Procedure, shortened: as §1

rice (Oryza sativa) = assay: Test B flooded paddy test; settings: for Plant response rating, Flood, Rice: 250 g ai/ha, flooded paddy test, visual rating on 0 to 100 scale (0 no effect, 100 complete control) after 13 to 15 days; for Plant response rating, Rice: Flood (flooded paddy test), 13 to 15 days
Procedure, shortened: as §1

[4] = test system: morningglory (Ipomoea spp.); assay: Test A pre-/postemergence plant response
Procedure, shortened: (§2)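 Visual injury rating on a 0–100 scale (0 = no effect, 100 = complete control) was made versus untreated controls after about ten days in the greenhouse. Compounds, formulated in a non-phytotoxic solvent mix containing surfactant, were sprayed preemergence onto loam/sand soil and postemergence onto one- to two-leaf plants.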

[5] = test system: velvetleaf (Abutilon theophrasti); assay: Test A pre-/postemergence plant response
Procedure, shortened: as §2

[6] = test system: large crabgrass (Digitaria sanguinalis); assay: Test A pre-/postemergence plant response
Procedure, shortened: as §2

[7] = test system: wheat (Triticum aestivum); assay: Test A pre-/postemergence plant response
Procedure, shortened: as §2

[8] = test system: barnyardgrass (Echinochloa crus-galli); assay: Test A pre-/postemergence plant response
Procedure, shortened: as §2

corn (Zea mays) = assay: Test A pre-/postemergence plant response
Procedure, shortened: as §2

[9] = test system: giant foxtail (Setaria faberii); assay: Test A pre-/postemergence plant response
Procedure, shortened: as §2

[10] = test system: pigweed (Amaranthus retroflexus); assay: Test A pre-/postemergence plant response
Procedure, shortened: as §2

[11] = 62 g ai/ha, scale of 0 to 100 where 0 is no effect and 100 is complete control
[12] = 125 g ai/ha, scale 0 to 100, 0 is no effect, 100 is complete control
[13] = Flood, 31 g ai/ha, scale 0 to 100 (0 no effect, 100 complete control)
[14] = Postemergence, 125 g ai/ha, visual injury, 0 to 100 scale (0 no effect, 100 complete control), approx. ten days
[15] = Postemergence, 500 g ai/ha, visual injury, 0 to 100 scale (0 no effect, 100 complete control), approx. ten days
[16] = Preemergence, 125 g ai/ha, 0 to 100 scale where 0 is no effect and 100 is complete control, approximately ten days
[17] = Preemergence, 500 g ai/ha, 0 to 100 scale, 0 = no effect, 100 = complete control
[18] = Postemergence, 125 g ai/ha, 0 to 100 scale where 0 is no effect and 100 is complete control
[19] = Postemergence, 500 g ai/ha, 0 to 100 scale, 0 = no effect, 100 = complete control, approx. ten days
[20] = Preemergence, 125 g ai/ha, 0 to 100 scale, 0 = no effect, 100 = complete control
[21] = Preemergence, 500 g ai/ha, visual injury, 0 to 100 scale (0 no effect, 100 complete control), approx. ten days

C#Cc1ccc(-c2ncc(C(=O)C3=C(O)C4CCC(C4)C3=O)c(=O)n2C2CCCCC2)cc1 (stereo not drawn) [Compound 254]
Plant response rating, Flood, Sedge, Umbrella [1]: 80
Plant response rating, Sedge, Umbrella [1, 11]: 50
Plant response rating, Sedge, Umbrella [1, 12]: 75
Sedge, Umbrella plant response rating [1, 13]: 30
Plant response rating, Flood, Barnyardgrass [2]: 15
Plant response rating, Barnyardgrass [2, 11]: 0
Plant response rating, Barnyardgrass [2, 12]: 10
Barnyardgrass plant response rating [2, 13]: 0
Plant response rating, Flood, Ducksalad [3]: 100
Plant response rating, Ducksalad [3, 11]: 85
Plant response rating, Ducksalad [3, 12]: 85
Ducksalad plant response rating [3, 13]: 45
Plant response rating, Flood, Rice (rice (Oryza sativa)): 0
Plant response rating, Rice (rice (Oryza sativa); [11]): 0
Plant response rating, Rice (rice (Oryza sativa); [12]): 0
Rice plant response rating (rice (Oryza sativa); [13]): 0
Plant response rating, Morningglory [4, 14]: 20
Morningglory plant response rating [4, 15]: 50
Plant response rating, Morningglory [4, 16]: 0
Plant response rating, Velvetleaf [5, 14]: 50
Velvetleaf plant response rating [5, 15]: 90
Plant response rating, Velvetleaf [5, 16]: 0
Plant response rating, Velvetleaf [5, 17]: 20
Plant response rating, Crabgrass, Large [6, 18]: 20
Crabgrass, Large plant response rating [6, 15]: 70
Plant response rating, Crabgrass, Large [6, 16]: 0
Plant response rating, Crabgrass, Large [6, 17]: 50
Plant response rating, Wheat [7, 14]: 0
Wheat plant response rating [7, 15]: 0
Plant response rating, Wheat [7, 16]: 0
Plant response rating, Wheat [7, 17]: 0
Plant response rating, Barnyardgrass [8, 18]: 0
Barnyardgrass plant response rating [8, 15]: 90
Plant response rating, Barnyardgrass [8, 16]: 0
Plant response rating, Barnyardgrass [8, 17]: 10
Plant response rating, Corn (corn (Zea mays); [18]): 0
Corn plant response rating (corn (Zea mays); [15]): 10
Plant response rating, Corn (corn (Zea mays); [16]): 0
Plant response rating, Corn (corn (Zea mays); [17]): 0
Plant response rating, Foxtail, Giant [9, 14]: 10
Foxtail, Giant plant response rating [9, 15]: 50
Plant response rating, Foxtail, Giant [9, 16]: 0
Plant response rating, Foxtail, Giant [9, 17]: 30
Plant response rating, Pigweed [10, 14]: 60
Pigweed plant response rating [10, 15]: 90
Plant response rating, Pigweed [10, 16]: 0
Plant response rating, Pigweed [10, 17]: 0

CCCn1c(-c2ccc(OC)cc2)ncc(C(=O)C2=C(O)CCCC2=O)c1=O [Compound 112]
Plant response rating, Flood, Sedge, Umbrella [1]: 90
Plant response rating, Sedge, Umbrella [1, 11]: 85
Plant response rating, Flood, Barnyardgrass [2]: 40
Plant response rating, Barnyardgrass [2, 11]: 35
Plant response rating, Flood, Ducksalad [3]: 95
Plant response rating, Ducksalad [3, 11]: 85
Plant response rating, Flood, Rice (rice (Oryza sativa)): 15
Plant response rating, Rice (rice (Oryza sativa); [11]): 0
Plant response rating, Morningglory [4, 18]: 90
Plant response rating, Morningglory [4, 19]: 100
Plant response rating, Morningglory [4, 20]: 0
Plant response rating, Morningglory [4, 21]: 80
Plant response rating, Velvetleaf [5, 18]: 100
Plant response rating, Velvetleaf [5, 19]: 100
Plant response rating, Velvetleaf [5, 20]: 40
Plant response rating, Velvetleaf [5, 21]: 70
Plant response rating, Crabgrass, Large [6, 18]: 80
Plant response rating, Crabgrass, Large [6, 19]: 90
Plant response rating, Crabgrass, Large [6, 20]: 60
Plant response rating, Crabgrass, Large [6, 21]: 100
Plant response rating, Wheat [7, 18]: 0
Plant response rating, Wheat [7, 19]: 10
Plant response rating, Wheat [7, 20]: 0
Plant response rating, Wheat [7, 21]: 0
Plant response rating, Barnyardgrass [8, 18]: 60
Plant response rating, Barnyardgrass [8, 19]: 90
Plant response rating, Barnyardgrass [8, 20]: 0
Plant response rating, Barnyardgrass [8, 21]: 80
Plant response rating, Corn (corn (Zea mays); [18]): 0
Plant response rating, Corn (corn (Zea mays); [19]): 20
Plant response rating, Corn (corn (Zea mays); [20]): 0
Plant response rating, Corn (corn (Zea mays); [21]): 0
Plant response rating, Foxtail, Giant [9, 18]: 70
Plant response rating, Foxtail, Giant [9, 19]: 80
Plant response rating, Foxtail, Giant [9, 20]: 20
Plant response rating, Foxtail, Giant [9, 21]: 60
Plant response rating, Pigweed [10, 18]: 90
Plant response rating, Pigweed [10, 19]: 100
Plant response rating, Pigweed [10, 20]: 20
Plant response rating, Pigweed [10, 21]: 100

CCCn1c(-c2ccc(Br)cc2)ncc(C(=O)C2=C(O)CCCC2=O)c1=O [Compound 134]
Plant response rating, Flood, Sedge, Umbrella [1]: 0
Plant response rating, Sedge, Umbrella [1, 11]: 0
Plant response rating, Flood, Barnyardgrass [2]: 0
Plant response rating, Barnyardgrass [2, 11]: 0
Plant response rating, Flood, Ducksalad [3]: 0
Plant response rating, Ducksalad [3, 11]: 0
Plant response rating, Flood, Rice (rice (Oryza sativa)): 0
Plant response rating, Rice (rice (Oryza sativa); [11]): 0
Plant response rating, Morningglory [4, 18]: 0
Plant response rating, Morningglory [4, 19]: 60
Plant response rating, Morningglory [4, 21]: 30
Plant response rating, Velvetleaf [5, 18]: 100
Plant response rating, Velvetleaf [5, 19]: 100
Plant response rating, Velvetleaf [5, 20]: 70
Plant response rating, Velvetleaf [5, 21]: 70
Plant response rating, Crabgrass, Large [6, 18]: 50
Plant response rating, Crabgrass, Large [6, 19]: 80
Plant response rating, Crabgrass, Large [6, 20]: 0
Plant response rating, Crabgrass, Large [6, 21]: 30
Plant response rating, Wheat [7, 18]: 0
Plant response rating, Wheat [7, 19]: 0
Plant response rating, Wheat [7, 20]: 0
Plant response rating, Wheat [7, 21]: 0
Plant response rating, Barnyardgrass [8, 18]: 10
Plant response rating, Barnyardgrass [8, 19]: 60
Plant response rating, Barnyardgrass [8, 20]: 0
Plant response rating, Barnyardgrass [8, 21]: 10
Plant response rating, Corn (corn (Zea mays); [18]): 0
Plant response rating, Corn (corn (Zea mays); [19]): 20
Plant response rating, Corn (corn (Zea mays); [20]): 0
Plant response rating, Corn (corn (Zea mays); [21]): 0
Plant response rating, Foxtail, Giant [9, 18]: 40
Plant response rating, Foxtail, Giant [9, 19]: 70
Plant response rating, Foxtail, Giant [9, 20]: 0
Plant response rating, Foxtail, Giant [9, 21]: 30
Plant response rating, Pigweed [10, 18]: 70
Plant response rating, Pigweed [10, 19]: 80
Plant response rating, Pigweed [10, 20]: 0
Plant response rating, Pigweed [10, 21]: 60
